The record followed here is ChEMBL document CHEMBL1201862, “PubChem BioAssay data set” (2004).

Among the test systems are 786-0; HCC 2998; OVCAR-4; OVCAR-8; MDA-MB-435; SR; SK-OV-3; SW-620; M14; OVCAR-3; UO-31; SN12C; MCF7; SF-539; NCI/ADR-RES; SK-MEL-5; NCI-H460; MDA-N; RPMI-8226; RXF 393.
What all share (experiment): NCI tumour cell line growth inhibition, 48 h

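48-hour exposure; five concentrations; linearly interpolated endpoints. Abbreviation: GI50, concentration required for 50% inhibition of growth.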 Activity calls are given as the source filed them. No stated cut-off is given here; in the data, active = GI50 up to about 1.1 µM and inactive = higher.

Take `O/N=C1\C/C(=N\O)c2c(Br)sc(Br)c21`: the GI50 is 36 µM (inactive) in the test on 786-0; 23.7 µM (inactive) in the test with HCC 2998; 27.2 µM (inactive) with OVCAR-4; 19.2 µM (inactive) in the test with OVCAR-8; 41.8 µM (inactive) in the test with MDA-MB-435; 8.99 µM (inactive) in the test on SR. The GI50 in the test on SK-OV-3 was 91.8 µM (inactive); in the test with SW-620 it was 26.4 µM (inactive); in the test on M14, 45.6 µM (inactive); in the test with OVCAR-3 it was 30.6 µM (inactive); in the test with UO-31, 20.6 µM (inactive); in the test with SN12C it was > 100 µM (inactive). Also, the GI50 with MCF7 is 38.3 µM (inactive); with SF-539, 38.2 µM (inactive); with NCI/ADR-RES, 30.2 µM (inactive); with SK-MEL-5 it was > 100 µM (inactive); in the test on NCI-H460, > 100 µM (inactive); in the test on MDA-N it was 78.5 µM (inactive).
Consider `O=C(NNS(=O)(=O)c1ccccc1)c1csc(NC(=S)NC2CCCCC2)n1`, for which the GI50 is 15.4 µM (inactive) in the test with 786-0; 29 µM (inactive) in the test on HCC 2998; 34.6 µM (inactive) in the test with OVCAR-4; 33.5 µM (inactive) in the test with OVCAR-8; 20.6 µM (inactive) in the test with MDA-MB-435; 36.9 µM (inactive) with SR. Moreover, the GI50 is 42.2 µM (inactive) with SK-OV-3; 25 µM (inactive) with SW-620; 39.2 µM (inactive) in the test on M14; 4.07 µM (inactive) in the test on OVCAR-3; 23.9 µM (inactive) in the test on UO-31; 20.8 µM (inactive) in the test with SN12C. For the same molecule, the GI50 was 41 µM (inactive) in the test on MCF7; 44.2 µM (inactive) in the test on RPMI-8226; 37.5 µM (inactive) with SF-539; 38.4 µM (inactive) in the test on NCI/ADR-RES; 14.4 µM (inactive) with SK-MEL-5; 18.5 µM (inactive) in the test on MDA-N.
With `Cc1cc(C)c2c(=N)c3ccccc3n(CCCCCCO)c2n1`, the GI50 is 2.47 µM (inactive) in the test with 786-0; 2.81 µM (inactive) in the test on HCC 2998; 2.45 µM (inactive) in the test with OVCAR-4; 3.21 µM (inactive) in the test with RXF 393; 1.17 µM (inactive) with OVCAR-8; 4.38 µM (inactive) with MDA-MB-435. Also, the GI50 in the test on SK-OV-3 is 5.2 µM (inactive); with SW-620, 4.17 µM (inactive); in the test with M14 it was 4.22 µM (inactive); in the test on OVCAR-3, 6.55 µM (inactive); in the test with UO-31, 1.63 µM (inactive); in the test with SN12C, 1.95 µM (inactive). Also, the GI50 with MCF7 is 2.11 µM (inactive); in the test with RPMI-8226, 1.38 µM (inactive); in the test on SF-539 it was 2.33 µM (inactive); with NCI/ADR-RES, 2.31 µM (inactive); in the test on SK-MEL-5, 2.55 µM (inactive); with NCI-H460 it was 1.69 µM (inactive). Besides, the GI50 in the test with MDA-N was 2.52 µM (inactive).
As to `CC(C)SC(C)(NC(=O)C1C(C)(C)CCC1(C)C)C(=O)O` (centres undefined), the GI50 with 786-0, in the test with HCC 2998, in the test with MDA-MB-435, with SR, in the test on SK-OV-3 and with SW-620 was > 100 µM (inactive) in each case. Moreover, the GI50 with M14, with UO-31, with SN12C, in the test with MCF7, in the test with RPMI-8226 and in the test with SF-539 was > 100 µM (inactive) throughout. Besides, the GI50 with NCI/ADR-RES, in the test on SK-MEL-5, in the test with NCI-H460 and with MDA-N was > 100 µM (inactive) in each case.
`Cc1cn(C2OC(CO[Si](C)(C)C(C)(C)C)C(N(C)O[Si](C)(C)C(C)(C)C)C2[Se]c2ccccc2)c(=O)[nH]c1=O` (centres undefined): the GI50 is 2.89 µM (inactive) in the test with 786-0; 0.0325 µM (active) in the test with HCC 2998; 2.87 µM (inactive) in the test on OVCAR-4; 3.74 µM (inactive) in the test on OVCAR-8; 3.79 µM (inactive) with MDA-MB-435; 9.89 µM (inactive) in the test on SR. In addition, the GI50 was 17.4 µM (inactive) in the test with SK-OV-3; 3.48 µM (inactive) with SW-620; 8.3 µM (inactive) in the test on M14; 4.39 µM (inactive) in the test on OVCAR-3; 3.23 µM (inactive) with UO-31; 5.65 µM (inactive) in the test with SN12C. Further, the GI50 in the test on MCF7 was 4.71 µM (inactive); in the test on RPMI-8226, 3.18 µM (inactive); with NCI/ADR-RES it was 13.2 µM (inactive); with SK-MEL-5, 4.16 µM (inactive); with MDA-N, 8.93 µM (inactive).
As for `COC(=O)C1(Cc2cccc(Cl)c2)CCCCCCN1C(=O)c1ccccc1` (centres undefined), the GI50 is 13.2 µM (inactive) in the test on 786-0; 13.6 µM (inactive) in the test on HCC 2998; 14.5 µM (inactive) in the test with OVCAR-4; 16.6 µM (inactive) in the test on OVCAR-8; 18.9 µM (inactive) with MDA-MB-435; 13.9 µM (inactive) in the test on SR. Also, the GI50 in the test with SK-OV-3 was 19.2 µM (inactive); with SW-620 it was 18.2 µM (inactive); in the test on M14, 17.9 µM (inactive); with OVCAR-3, 6.71 µM (inactive); in the test on UO-31, 10.8 µM (inactive); in the test with SN12C, 14.5 µM (inactive). In addition, the GI50 with MCF7 is 13.5 µM (inactive); in the test on RPMI-8226, 6.7 µM (inactive); with NCI/ADR-RES, 16.9 µM (inactive); in the test with SK-MEL-5, 12.8 µM (inactive); in the test on NCI-H460, 15.2 µM (inactive); in the test with MDA-N, 16.5 µM (inactive).
In the case of `Cc1cc2[nH]c3c(C#N)c(-c4ccccc4)c(/C=N/c4cccc(C(F)(F)F)c4)c(=O)n3c2cc1C`, the GI50 in the test with 786-0 is 94 µM (inactive); in the test on HCC 2998, > 100 µM (inactive); in the test with OVCAR-4 it was 99.5 µM (inactive); in the test with RXF 393, 37 µM (inactive); with OVCAR-8, > 100 µM (inactive); with MDA-MB-435 it was > 100 µM (inactive). For the same molecule, the GI50 is 99.5 µM (inactive) with SK-OV-3; 59.7 µM (inactive) with SW-620; > 100 µM (inactive) in the test on M14; 16.3 µM (inactive) in the test with OVCAR-3; > 100 µM (inactive) in the test on UO-31; 89.9 µM (inactive) in the test on SN12C. The GI50 with MCF7 was 79.8 µM (inactive); in the test with RPMI-8226, 70 µM (inactive); with SF-539 it was 63.4 µM (inactive); in the test on NCI/ADR-RES it was > 100 µM (inactive); in the test with SK-MEL-5 it was > 100 µM (inactive); with NCI-H460 it was > 100 µM (inactive). In the test on MDA-N, the GI50 was 79.3 µM (inactive).
`COc1cccc(/C=N/[N+](C)(C)C)c1O`: the GI50 in the test on 786-0, in the test with HCC 2998, in the test with OVCAR-4, in the test with RXF 393, in the test with OVCAR-8 and in the test on MDA-MB-435 was > 10 µM (inactive) in each case. Besides, the GI50 with SK-OV-3, with SW-620, in the test on M14, with OVCAR-3, with UO-31 and with SN12C was > 10 µM (inactive) in each case. Also, the GI50 in the test on MCF7, with RPMI-8226, with SF-539, with NCI/ADR-RES, in the test on SK-MEL-5 and in the test with NCI-H460 was > 10 µM (inactive) throughout. Further, in the test on MDA-N, the GI50 is > 10 µM (inactive).
Consider `COc1cc(/C=C2\N=C(c3ccccc3)N(c3ccc(C(=O)c4ccccc4)cc3N3C(=O)/C(=C/c4ccc(O)c(OC)c4)N=C3c3ccccc3)C2=O)ccc1O`, for which the GI50 with 786-0 is 18.9 µM (inactive); in the test with HCC 2998 it was 2.91 µM (inactive); in the test on OVCAR-4, 14.9 µM (inactive); with OVCAR-8, 12.7 µM (inactive); with MDA-MB-435, 2.25 µM (inactive); with SR it was 3.85 µM (inactive). Further, the GI50 in the test with SK-OV-3 was 12.1 µM (inactive); in the test on SW-620, 7.53 µM (inactive); in the test with M14, 11.3 µM (inactive); in the test with OVCAR-3, 3.52 µM (inactive); with UO-31, 13 µM (inactive); in the test on SN12C, 17.9 µM (inactive). The GI50 in the test on MCF7 is 5.85 µM (inactive); with RPMI-8226 it was 8.51 µM (inactive); in the test with SF-539, 5.15 µM (inactive); in the test with NCI/ADR-RES, 6.76 µM (inactive); in the test with SK-MEL-5, 7.76 µM (inactive); with NCI-H460, 4.66 µM (inactive). Besides, in the test with MDA-N, the GI50 is 3.75 µM (inactive).
As for `NS(=O)(=O)c1cc(S(N)(=O)=O)c(NC(=O)Nc2ccc(Cl)c(Cl)c2)c(Cl)c1Cl`, the GI50 in the test with 786-0, with HCC 2998, in the test on OVCAR-4, in the test with OVCAR-8, with MDA-MB-435 and in the test on SR was > 100 µM (inactive) in each case. Besides, the GI50 with SK-OV-3, with SW-620, in the test on M14, in the test with OVCAR-3, in the test on UO-31 and in the test on SN12C was > 100 µM (inactive) each time. Also, the GI50 in the test on MCF7, with RPMI-8226, in the test with NCI/ADR-RES, in the test with SK-MEL-5, in the test on NCI-H460 and in the test on MDA-N was > 100 µM (inactive) each time.
Consider `COc1ccc2c(c1)c(CC(=O)O)c(C)n2C(=O)c1ccc(Cl)cc1`, for which the GI50 was 75.3 µM (inactive) in the test with 786-0; 35.6 µM (inactive) in the test on HCC 2998; > 100 µM (inactive) with OVCAR-4; 77.6 µM (inactive) in the test with OVCAR-8; > 100 µM (inactive) with MDA-MB-435; 16.3 µM (inactive) in the test on SR. In addition, the GI50 in the test on SW-620 is > 100 µM (inactive); in the test on M14 it was > 100 µM (inactive); in the test on OVCAR-3, 56.6 µM (inactive); in the test on UO-31, 41.8 µM (inactive); in the test on SN12C, > 100 µM (inactive); in the test with MCF7, 87.7 µM (inactive). In addition, the GI50 is 28.5 µM (inactive) in the test on RPMI-8226; 98.2 µM (inactive) with SF-539; > 100 µM (inactive) with NCI/ADR-RES; > 100 µM (inactive) in the test on SK-MEL-5; 39.9 µM (inactive) in the test with NCI-H460; > 100 µM (inactive) in the test with MDA-N.
